Assay results from PubChem BioAssay AID212 (DTP/NCI, 2004).
Where “and” joins values, the source holds several entries; their conditions need not be identical. Equal entries are not always repeated. Records with an inconclusive call do not appear.

System: BDF1 mice, colon carcinoma 38 sc, T/C %
Experiment: NCI In Vivo Anticancer Drug Screen. Data for tumor model Colon Carcinoma 38 (subcutaneous) in B6D2F1 (BDF1) mice
Details: endpoint: median tumor weight (est.), higher = larger tumour
Method in brief: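 Compound antitumor activity was assessed in mice carrying transplantable tumors. Survival or tumor size was recorded, and each value is the treated-group measurement divided by that of the vehicle-treated control group.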

[1] = dose: 25.0 mg/kg/injection, schedule: Q07DX003 (ip), vehicle: saline
[2] = dose: 0.78 mg/kg/injection, schedule: Q07DX002 (ip), vehicle: saline

Structure (SMILES): O=C1NC2(CCCCC2)C(=O)N1CCN(CCCl)CCCl
- T/C (dose: 8.0 mg/kg/injection, schedule: Q07DX003 (ip), vehicle: Klucel (hydroxypropylcellulose) (HPC)): 60 % of control
- T/C (dose: 16.0 mg/kg/injection, schedule: Q07DX003 (ip), vehicle: Klucel (hydroxypropylcellulose) (HPC)): 69 % of control and 88 % of control
- T/C (dose: 32.0 mg/kg/injection, schedule: Q07DX003 (ip), vehicle: Klucel (hydroxypropylcellulose) (HPC)): 38 % of control and 62 % of control
- T/C (dose: 64.0 mg/kg/injection, schedule: Q07DX003 (ip), vehicle: Klucel (hydroxypropylcellulose) (HPC)): 28 % of control

Structure (SMILES): COc1ccc(C(N)=O)cc1N=NN(C)C
- T/C (dose: 6.25 mg/kg/injection, schedule: Q07DX003 (ip), vehicle: Klucel (hydroxypropylcellulose) (HPC)): 97 % of control
- T/C (dose: 12.5 mg/kg/injection, schedule: Q07DX003 (ip), vehicle: Klucel (hydroxypropylcellulose) (HPC)): 111 % of control
- T/C (dose: 25.0 mg/kg/injection, schedule: Q07DX003 (ip), vehicle: Klucel (hydroxypropylcellulose) (HPC)): 89 % of control
- T/C (dose: 50.0 mg/kg/injection, schedule: Q07DX003 (ip), vehicle: Klucel (hydroxypropylcellulose) (HPC)): 66 % of control
- T/C (dose: 100.0 mg/kg/injection, schedule: Q07DX003 (ip), vehicle: Klucel (hydroxypropylcellulose) (HPC)): 15 % of control

Structure (SMILES): O=c1n(CC2CO2)c(=O)n(CC2CO2)c(=O)n1CC1CO1 (stereo unspecified)
- T/C (dose: 12.0 mg/kg/injection, schedule: Q07DX002 (ip), vehicle: saline with Tween-80): 121 % of control
- T/C (dose: 12.5 mg/kg/injection, schedule: Q07DX002 (ip), vehicle: saline with Tween-80): 170 % of control
- T/C (dose: 12.5 mg/kg/injection, schedule: Q07DX002 (ip), vehicle: suspension in saline): 101 % of control and 88 % of control and 89 % of control
- T/C [1]: 43 % of control
- T/C (dose: 50.0 mg/kg/injection, schedule: Q07DX002 (ip), vehicle: saline with Tween-80): 119 % of control and 102 % of control
- T/C (dose: 50.0 mg/kg/injection, schedule: Q07DX002 (ip), vehicle: suspension in saline): 66 % of control and 42 % of control and 62 % of control
- T/C (dose: 50.0 mg/kg/injection, schedule: Q07DX003 (ip), vehicle: saline): 36 % of control
- T/C (dose: 100.0 mg/kg/injection, schedule: Q07DX002 (ip), vehicle: saline with Tween-80): 42 % of control and 65 % of control
- T/C (dose: 100.0 mg/kg/injection, schedule: Q07DX002 (ip), vehicle: suspension in saline): 81 % of control
- T/C (dose: 200.0 mg/kg/injection, schedule: Q07DX002 (ip), vehicle: suspension in saline): 81 % of control

Structure (SMILES): Cc1noc(N)c1N
- T/C (dose: 25.0 mg/kg/injection, schedule: Q07DX002 (ip), vehicle: water): 79 % of control
- T/C (dose: 50.0 mg/kg/injection, schedule: Q07DX002 (ip), vehicle: water): 82 % of control
- T/C (dose: 100.0 mg/kg/injection, schedule: Q07DX002 (ip), vehicle: water): 78 % of control
- T/C (dose: 200.0 mg/kg/injection, schedule: Q07DX002 (ip), vehicle: water): 101 % of control
- T/C (dose: 400.0 mg/kg/injection, schedule: Q07DX002 (ip), vehicle: water): 74 % of control
- T/C (dose: 800.0 mg/kg/injection, schedule: Q07DX002 (ip), vehicle: water): 95 % of control

Structure (SMILES): CCOC(=O)NC1=C(N2CC2)C(=O)C(NC(=O)OCC)=C(N2CC2)C1=O
- T/C [2]: 98 % of control
- T/C (dose: 0.78 mg/kg/injection, schedule: Q07DX002 (ip), vehicle: suspension in saline): 102 % of control
- T/C (dose: 1.56 mg/kg/injection, schedule: Q07DX002 (ip), vehicle: saline): 94 % of control
- T/C (dose: 1.56 mg/kg/injection, schedule: Q07DX002 (ip), vehicle: suspension in saline): 95 % of control
- T/C (dose: 3.13 mg/kg/injection, schedule: Q07DX002 (ip), vehicle: suspension in saline): 95 % of control
- T/C (dose: 6.25 mg/kg/injection, schedule: Q07DX002 (ip), vehicle: saline): 77 % of control
- T/C (dose: 6.25 mg/kg/injection, schedule: Q07DX002 (ip), vehicle: suspension in saline): 85 % of control
- T/C (dose: 12.5 mg/kg/injection, schedule: Q07DX002 (ip), vehicle: saline): 69 % of control
- T/C (dose: 25.0 mg/kg/injection, schedule: Q07DX002 (ip), vehicle: saline): 12 % of control
- T/C [1]: 32 % of control

Structure (SMILES): ClCCCN1CCCCC1CCl (stereo unspecified)
- T/C [2]: 80 % of control and 86 % of control

Structure (SMILES): NC(=O)Oc1cccc(OC(N)=O)c1
- T/C (dose: 25.0 mg/kg/injection, schedule: Q07DX003 (ip), vehicle: other): 63 % of control
- T/C (dose: 50.0 mg/kg/injection, schedule: Q07DX003 (ip), vehicle: other): 103 % of control
- T/C (dose: 100.0 mg/kg/injection, schedule: Q07DX003 (ip), vehicle: other): 51 % of control
- T/C (dose: 200.0 mg/kg/injection, schedule: Q07DX003 (ip), vehicle: other): 68 % of control
- T/C (dose: 400.0 mg/kg/injection, schedule: Q07DX003 (ip), vehicle: other): 75 % of control
